Results published in paper PMC3914206.

How the values were obtained:
Type in all cases: binding
Settings in all cases: Compound Concentration 10 µM
panel of 442 kinases [1] = target: T1, panel of 442 kinases (Homo sapiens, UniProt P15056, V600E)
T1 construct: purchased KINOMEscan
Description: (§1) We assessed the selectivity of members of this scaffold using the KINOMEscan methodology across a near comprehensive panel of 442 kinases [[18,27]].

panel of 442 kinases [2] = target: T2, panel of 442 kinases (Homo sapiens, UniProt Q9Y616)
T2 construct: purchased KINOMEscan
T2 sequence (Q9Y616 1-596): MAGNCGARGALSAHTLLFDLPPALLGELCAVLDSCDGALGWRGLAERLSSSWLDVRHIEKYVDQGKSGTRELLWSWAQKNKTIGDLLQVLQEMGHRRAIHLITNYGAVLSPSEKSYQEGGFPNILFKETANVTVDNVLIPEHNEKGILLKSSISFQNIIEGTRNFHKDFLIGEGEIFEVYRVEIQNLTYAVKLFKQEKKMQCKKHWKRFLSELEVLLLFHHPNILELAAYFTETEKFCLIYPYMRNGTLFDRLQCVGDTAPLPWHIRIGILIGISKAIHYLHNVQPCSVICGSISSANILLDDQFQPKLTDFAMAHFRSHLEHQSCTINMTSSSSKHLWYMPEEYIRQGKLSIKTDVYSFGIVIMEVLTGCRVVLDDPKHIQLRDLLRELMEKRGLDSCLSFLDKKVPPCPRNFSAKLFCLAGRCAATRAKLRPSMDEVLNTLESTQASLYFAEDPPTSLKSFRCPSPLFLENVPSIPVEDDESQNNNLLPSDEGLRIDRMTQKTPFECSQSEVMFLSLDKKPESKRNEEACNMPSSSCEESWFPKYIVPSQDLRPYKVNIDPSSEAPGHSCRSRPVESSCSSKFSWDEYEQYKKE
Description: as §1

panel of 442 kinases [3] = target: T3, panel of 442 kinases (Homo sapiens, UniProt P27361)
T3 construct: purchased KINOMEscan
Description: as §1

T1 sequence (P15056 whole entry V600E): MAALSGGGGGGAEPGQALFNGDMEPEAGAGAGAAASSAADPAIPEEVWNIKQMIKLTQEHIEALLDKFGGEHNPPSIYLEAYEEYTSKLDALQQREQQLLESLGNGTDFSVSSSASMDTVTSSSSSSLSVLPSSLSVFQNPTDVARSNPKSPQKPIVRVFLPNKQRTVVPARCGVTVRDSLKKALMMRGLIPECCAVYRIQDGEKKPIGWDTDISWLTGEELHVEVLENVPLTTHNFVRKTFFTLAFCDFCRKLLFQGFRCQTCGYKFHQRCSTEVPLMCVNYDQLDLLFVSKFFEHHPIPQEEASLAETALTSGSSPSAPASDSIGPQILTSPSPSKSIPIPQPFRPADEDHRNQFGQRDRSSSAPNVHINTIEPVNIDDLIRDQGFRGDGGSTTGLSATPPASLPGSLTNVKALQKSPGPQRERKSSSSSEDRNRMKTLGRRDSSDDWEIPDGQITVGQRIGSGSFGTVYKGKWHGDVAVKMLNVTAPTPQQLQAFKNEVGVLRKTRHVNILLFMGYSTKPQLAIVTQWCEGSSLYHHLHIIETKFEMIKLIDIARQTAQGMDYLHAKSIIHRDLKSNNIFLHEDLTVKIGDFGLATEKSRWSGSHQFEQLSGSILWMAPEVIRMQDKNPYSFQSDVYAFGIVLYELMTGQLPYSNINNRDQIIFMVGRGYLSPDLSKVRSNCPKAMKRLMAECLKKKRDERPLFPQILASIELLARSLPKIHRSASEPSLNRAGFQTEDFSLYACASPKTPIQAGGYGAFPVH
T3 sequence (P27361 whole entry): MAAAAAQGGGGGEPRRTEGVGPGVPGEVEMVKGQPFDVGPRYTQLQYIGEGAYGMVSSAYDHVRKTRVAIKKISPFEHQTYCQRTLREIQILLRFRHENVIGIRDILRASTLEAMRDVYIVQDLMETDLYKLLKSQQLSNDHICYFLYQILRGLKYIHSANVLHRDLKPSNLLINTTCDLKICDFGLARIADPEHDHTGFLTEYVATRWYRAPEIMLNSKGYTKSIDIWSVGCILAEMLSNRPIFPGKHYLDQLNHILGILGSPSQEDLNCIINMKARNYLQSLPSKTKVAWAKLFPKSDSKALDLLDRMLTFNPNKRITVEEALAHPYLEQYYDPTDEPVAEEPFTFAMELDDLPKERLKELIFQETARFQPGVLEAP

Compound | KINOMEscan: BRAF(V600E) (panel of 442 kinases [1]) | KINOMEscan: IRAK3 (panel of 442 kinases [2]) | KINOMEscan: ERK1 (panel of 442 kinases [3])
COc1cc(C(=O)N2CCC(N3CCN(C)CC3)CC2)ccc1Nc1ncc2c(n1)N(C)c1ccccc1C(=O)N2C [15 (LRRK2-IN-1)] | 100 | 100 | 100
CCOc1cc(C(=O)N2CCC(N3CCN(C)CC3)CC2)ccc1Nc1ncc2c(n1)N(C1CCCC1)c1ccccc1C(=O)N2C [Compound 26] | 100 | 100 | 100
COc1cc(C(=O)N2CCC(N3CCN(C)CC3)CC2)ccc1Nc1ncc2c(n1)N(C1CCCC1)c1ccccc1C(=O)N2C [Compound 25, 11-cyclopentyl-2-((2-methoxy-4-(4-(4-methylpiperazin-1-yl)piperidine-1-carbonyl)phenyl)amino)-5-methyl-5H-benzo[e]pyrimido[5,4-b][1,4]diazepin-6(11H)-one] | 100 | 100 | 96
